From US20240294509A1, “PYRIDAZINONE COMPOUND AS PARP7 INHIBITOR” (Euregen Biopharma Co., Ltd., priority 2021, published 2024) come the findings set out here.

pIC50: −log10 of the molar value.

One data set relates to NCI-H1373 cells. Briefly: Inhibitory effect on the proliferation of NCI-H1373 cells (CellTiter-Glo). The format is cell-based. Particulars: Homo sapiens, 144 h, 6 days treatment. From the text: 1. Experimental Principle: NCI-H1373 cells are a type of lung adenocarcinoma cells that overexpress PARP7.
2. Experimental Materials: NCI-H1373 cells were obtained from Nanjing Cobioer Biosciences Co., Ltd. CellTiter-Glo® (cell viability chemiluminescent assay reagent) was purchased from Promega (Catalog No. G7571). RPMI-1640 medium was obtained from ATCC (Catalog No. 30-2001). RPMI-1640 medium, penicillin/streptomycin antibiotics were purchased from WISENT. Fetal bovine serum was obtained from Biosera. The Nivo multimode reader was procured from PerkinElmer.
3. Experimental Method: NCI-H1373 cells were seeded in a white 96-well plate with 80 μL of cell suspension per well, containing 3000 NCI-H1373 cells. The cell plate was incubated overnight in a carbon dioxide (CO2) incubator.
The test compounds were serially diluted 5-fold to the 9th concentration, ranging from 2 mmol/L to 5.12 nmol/L, for a duplicate assay. 78 μL of culture medium was added to the intermediate plate, and then, according to the corresponding positions, 2 μL of each gradient-diluted compound was transferred to the intermediate plate. After thorough mixing, 20 μL of the compound solution was transferred to the cell plate. The compound concentration range in the cell plate ranged from 10 μmol/L to 0.0256 nmol/L. The cell plate was incubated in a CO2 incubator for 6 days.
Another cell plate was prepared, and the signal values were read on the day of dosing to obtain the maximum value referred to as Max in the following equation for data analysis. 25 μL of cell viability chemiluminescent assay reagent was added to each well of this cell plate, and it was incubated at room temperature for 10 minutes to stabilize the luminescent signal. Readings were taken using a multimode reader.
After 6 days of treatment, 25 μL of cell viability chemiluminescent assay reagent was added to each well of the cell plate, and it was incubated at room temperature for 10 minutes to stabilize the luminescent signal. Readings were taken using a multimode reader.
The IC50 value was determined by four-parameter curve fitting (obtained by using the “log(inhibitor) vs. response—Variable slope” model in GraphPad Prism).
For orientation: In ATP-based viability assays light output follows the ATP content of the culture.

The nature of data set [1]: Metabolic stability in human liver microsomes. The class given is in vitro ADME. As to conditions: pH 7.4, 1.00 μM compound, 0.5 mg/mL protein, read-out: intrinsic clearance, Clint. On the procedure:
(§1) 1. Experiment purpose: This study aims to determine the metabolic stability of selected compounds from the embodiments of the invention in liver microsomes of humans, dogs, monkeys, rats, and mice using the LC-MS/MS method.
(§2) Test compounds: The test drug is self-made from the example compounds of the present invention; Positive control compound RBN2397 purchased from Shanghai BioChemPartner Biotechnology Co., Ltd.
(§3) Liver microsomes obtained from Xenotech.
(§4) The incubation was carried out at 37° C. in a CO2 incubator. The reactions were terminated by adding 150 μL of cold acetonitrile at different time points (0, 5, 15, 30, and 45 minutes). The 96-well plate was shaken at 600 rpm for 10 minutes, followed by centrifugation at 6000 rpm for 15 minutes. The supernatant (80 μL) was mixed with 140 μL of pure water, and the remaining amount of the compound was determined using LC-MS/MS. The intrinsic clearance (Clint) was calculated using the formula Clint=k/liver microsomes protein concentration, where “k” is the linear regression slope of log compound remaining percentage against incubation time.
(In general: Liver microsomes are a subcellular fraction often used to study metabolism.)

Data set [2] can be described thus: Metabolic stability in dog liver microsomes. The class given is in vitro ADME. As to conditions: pH 7.4, 1.00 μM compound, 0.5 mg/mL protein, read-out: intrinsic clearance, Clint. On the procedure: as §1, §2, §3, §4
Data set [3] can be described thus: Metabolic stability in rat liver microsomes. As to conditions: pH 7.4, 1.00 μM compound, 0.5 mg/mL protein, read-out: intrinsic clearance, Clint. The class given is in vitro ADME. On the procedure: as §1, §2, §3, §4
Data set [4] can be described thus: Pharmacokinetic properties in SD rats after single intravenous injection and oral administration. The format is in vivo. As to conditions: SD male rats; for F: oral bioavailability; for AUC(0-inf) / Cmax / clearance / half-life: rat, plasma. An excerpt:
1. Test purpose: to determine the pharmacokinetic characteristics of some of the example compound of the present invention in SD rats after single intravenous injection(IV) and oral administration(PO) by LC-MS/MS method.
2. Test material: the test drug is self-made from the example compounds of the present invention; Positive control compound RBN2397 purchased from Shanghai BioChemPartner Biotechnology Co., Ltd. SD male rats were obtained from the Laboratory Animal Management Department of Shanghai Family Planning Research Institute. Animal production license number (SCXK (Shanghai) 2018-0006).
Preparation of 0.5% methyl cellulose: 5 g of methyl cellulose were weighed and dissolved in 1000 mL of purified water.
Preparation of oral formulation: A required amount of test compound was weighed and dissolved in 0.5% methyl cellulose solution to obtain a suspension or solution of 0.5 mg/mL or 1.0 mg/mL.
Preparation of intravenous injection formulation: A required amount of test compound was weighed, and dissolved in 0.5 mL of dimethyl sulfoxide to prepare a solution of 4 mg/mL. 0.25 mL of the above solution was added into 0.5 mL of polyethylene glycol 15 hydroxystearate (solutol) and 4.25 mL of physiological saline to obtain a solution of 0.2 mg/mL.
Administration: SD male rats were orally administered (PO) after fasting overnight, and fed 4 hours after administration.
Sample Collection: blood was collected through jugular vein or other suitable vein, and 0.2 mL of blood was collected at each time point. Samples were placed into tubes containing ethylenediamine tetraacetic acid dipotassium salt and kept on ice before centrifugation. Within 1 hour after blood collection, the blood samples were centrifuged at 2-8° C. and 6800 g for 6 minutes and stored at −80° C. The time point for blood collection was 0.083, 0.25, 0.5, 1, 2, 4, 8 and 24 hours after intravenous administration, and 0.25, 0.5, 1, 2, 4, 6, 8 and 24 hours after oral administration.
The intravenous dosage was 1 mg/kg, and the pharmacokinetic parameters for oral administration were standardized to a 1 mg/kg dose.

The target of another data set is PARP7 (Homo sapiens (Human), UniProt Q7Z3E1). Briefly: biochemical.
Sequence of PARP7 (Q7Z3E1 whole entry): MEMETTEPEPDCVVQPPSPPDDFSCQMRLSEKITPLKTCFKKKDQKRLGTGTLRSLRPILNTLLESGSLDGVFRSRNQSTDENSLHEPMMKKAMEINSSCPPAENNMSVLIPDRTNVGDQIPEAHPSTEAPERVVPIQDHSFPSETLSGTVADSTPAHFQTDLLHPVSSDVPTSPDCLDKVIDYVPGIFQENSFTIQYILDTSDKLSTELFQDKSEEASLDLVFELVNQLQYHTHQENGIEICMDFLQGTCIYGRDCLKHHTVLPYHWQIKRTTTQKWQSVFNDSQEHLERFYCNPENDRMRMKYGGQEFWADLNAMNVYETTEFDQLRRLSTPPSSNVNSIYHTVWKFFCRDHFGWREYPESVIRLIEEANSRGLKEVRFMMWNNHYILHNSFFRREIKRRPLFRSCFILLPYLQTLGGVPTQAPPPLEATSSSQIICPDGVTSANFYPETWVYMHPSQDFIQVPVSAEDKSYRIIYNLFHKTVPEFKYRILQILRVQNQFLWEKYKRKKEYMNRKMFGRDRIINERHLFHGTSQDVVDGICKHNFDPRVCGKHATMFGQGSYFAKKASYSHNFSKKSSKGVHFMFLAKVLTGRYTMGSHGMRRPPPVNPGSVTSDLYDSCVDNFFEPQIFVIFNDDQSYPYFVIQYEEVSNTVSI
A further data set concerns the target PARP1 (Homo sapiens (Human), UniProt P09874). Briefly: biochemical.
Setting [5] is: Oral gavage, standardized to a 1 mg/kg dose.

Sequence of PARP1 (P09874 whole entry): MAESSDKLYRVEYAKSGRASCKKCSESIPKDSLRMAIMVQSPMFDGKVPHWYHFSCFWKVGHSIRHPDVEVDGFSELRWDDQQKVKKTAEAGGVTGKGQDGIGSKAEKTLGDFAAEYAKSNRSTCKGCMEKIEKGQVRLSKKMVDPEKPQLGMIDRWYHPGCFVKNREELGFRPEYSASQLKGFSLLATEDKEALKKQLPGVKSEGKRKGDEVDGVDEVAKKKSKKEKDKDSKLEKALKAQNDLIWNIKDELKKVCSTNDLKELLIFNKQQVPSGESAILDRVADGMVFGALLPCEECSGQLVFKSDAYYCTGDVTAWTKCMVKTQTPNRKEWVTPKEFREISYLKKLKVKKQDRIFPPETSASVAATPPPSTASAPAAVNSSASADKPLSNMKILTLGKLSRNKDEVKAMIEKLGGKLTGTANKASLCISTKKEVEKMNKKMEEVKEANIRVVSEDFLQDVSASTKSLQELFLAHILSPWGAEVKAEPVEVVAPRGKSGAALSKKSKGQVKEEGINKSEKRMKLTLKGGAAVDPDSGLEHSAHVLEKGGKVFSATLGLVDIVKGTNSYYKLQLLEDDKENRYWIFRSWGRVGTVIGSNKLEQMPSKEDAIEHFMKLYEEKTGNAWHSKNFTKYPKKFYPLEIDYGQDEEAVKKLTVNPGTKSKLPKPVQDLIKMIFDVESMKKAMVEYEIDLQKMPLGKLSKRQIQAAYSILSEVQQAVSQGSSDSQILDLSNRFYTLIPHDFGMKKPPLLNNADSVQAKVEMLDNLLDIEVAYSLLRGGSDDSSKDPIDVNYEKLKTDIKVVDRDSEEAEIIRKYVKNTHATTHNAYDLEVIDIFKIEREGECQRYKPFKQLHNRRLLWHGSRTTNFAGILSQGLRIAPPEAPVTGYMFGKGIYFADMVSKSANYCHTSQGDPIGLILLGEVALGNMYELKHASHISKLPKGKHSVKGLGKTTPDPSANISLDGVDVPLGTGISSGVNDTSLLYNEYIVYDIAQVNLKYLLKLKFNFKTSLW
Experimental for PARP1: (§5) Experimental Principle: The inhibitory effect of the test substance on the enzymatic activity of PARP1/7 is assessed by using an Enzyme-Linked Immunosorbent Assay (ELISA).
(§6) (1) Pre-coating: Add 100 μL of a PBS buffer (10 mM NaH2PO4, 10 mM Na2HPO4, 150 mM NaCl, pH 7.4) containing 20 g/mL of histone to each well of a 96-well plate, and incubate at 4° C. overnight.
(§7) (3) Add 5 μL of the test substance or solvent to each well.
(§8) (4) Add 20 μL of(PARP1 or PARP7 (50 ng/well), and incubate at 30° C. for 1 hour.
(§9) (5) Add 50 μL of streptavidin-HRP to the reaction mixture, and incubate at 30° C. for 30 minutes.
(§10) (6) Finally, add 100 μL of a citrate buffer containing H2O2 and luminol (0.1 M, pH 5.4), and measure the luminescent signal using a microplate reader (Molecular Devices SpectraMax M5).
(§11) (7) Calculate the inhibition rate of PARP1 or PARP7 enzyme activity as [(control group−treatment group)/control group]×10000. Fit the dose-response data with standard dilutions using Prism GraphPad software and calculate the concentration required to achieve 5000 inhibition of PARP1 or PARP7 enzyme activity (IC50).
Experimental for PARP7: as §5, §6, §7, §8, §9, §10, §11

In the data set on NCI-H1373 cells, `O=C(CC[C@@H]1CCCN1c1cc(C(F)(F)F)c(=O)[nH]n1)N1CCN(c2ncc(C(F)(F)F)cn2)CC1` [Compound 6] showed a pIC50 of 8.00. Further, the CLint scaled at 1 μM in data set [1] stood at 64.6 mL/min/kg. For the same compound, in data set [2], the CLint scaled at 1 μM worked out at 31.6 mL/min/kg. In data set [3], the CLint scaled at 1 μM turned out to be 137 mL/min/kg. The F in data set [4] (Oral gavage) is 18.1%. In data set [4] (Intravenous injection, 1 mg/kg), the AUC(0-inf) was found to be 1380 ng·h/mL, the Cmax was determined as 1950 ng/mL, the clearance turned out to be 12.2 mL/min/kg and the half-life is 85.8 min. For the same compound, in data set [4] (setting [5]), the AUC(0-inf) is 248 ng·h/mL and the Cmax was 30.4 ng/mL.

In turn, `O=C(CC[C@@H]1C[C@@H](Oc2ccccc2)CN1c1cc(C(F)(F)F)c(=O)[nH]n1)N1CCN(c2ncc(C(F)(F)F)cn2)CC1` [Compound 21] had a pIC50 in the data set with NCI-H1373 cells of 7.13. The F in data set [4] (Oral gavage) is listed as 21.18%. Besides, in data set [4] (Intravenous injection, 1 mg/kg), the total exposure AUC(0-inf) is 482 ng·h/mL, the highest level (Cmax) was 1210 ng/mL, the clearance amounted to 36.9 mL/min/kg and the half-life is 30.6 min. Besides, in data set [4] (setting [5]), the AUC(0-inf) is 111 ng·h/mL and the Cmax stood at 40.2 ng/mL. The same compound showed a pIC50 against PARP7 of 8.47. This compound showed a pIC50 against PARP1 of 6.09.

With `O=C(CC[C@@H]1C[C@@H](F)CN1c1cc(C(F)(F)F)c(=O)[nH]n1)N1CCN(c2ncc(C(F)(F)F)cn2)CC1` [Compound 20], the pIC50 in the data set with NCI-H1373 cells is 7.91. For the same compound, the CLint scaled at 1 μM amounted to 46.6 mL/min/kg in data set [1], 28.7 mL/min/kg in data set [2] and 74.4 mL/min/kg in data set [3]. Moreover, the F in data set [4] (Oral gavage) amounted to 15.53%. The AUC(0-inf) in data set [4] (Intravenous injection, 1 mg/kg) amounted to 523 ng·h/mL; in data set [4] (setting [5]), 94.4 ng·h/mL. Moreover, the Cmax came out at 734 ng/mL in data set [4] (Intravenous injection, 1 mg/kg) and 15 ng/mL in data set [4] (setting [5]). Further, the clearance in data set [4] (Intravenous injection, 1 mg/kg) turned out to be 32 mL/min/kg. Further, in data set [4] (Intravenous injection, 1 mg/kg), the half-life was 49.2 min.

As a reminder, the pIC50 is the IC50 on a negative log10 scale, so that one unit is a factor of ten. A high value points to a low IC50. The term AUC(0-inf) denotes the area under the concentration-time curve extrapolated to infinity. A higher AUC(0-inf) goes with more exposure. The Cmax is the peak of the concentration-time curve. By half-life is commonly meant the time needed for the level to fall by half in the phase considered. Read a high half-life as slow decline.
